Laboratory results reported in patent US6514519B1, “Edelfosin for the treatment of brain tumors” (Med-Mark Pharma GmbH, priority 1998, dated 2003).
“And” between values parts separate entries of the source, which are not always exact repeats. Equal values may be shown once. “Also recorded” adds a separate entry of the source.

Experiments:
brain tumors = assay: clinical phase II study with edelfosine: result of therapy and survival time; format: in vivo, humans; conditions: for Result of therapy (clin.): assessed on clinical symptoms (clin.)
Protocol: The patients which are listed below in Table 1, with their status before and after treatment, were treated with edelfosine in the phase II study. It is important to emphasize in this connection that virtually all the patients have previously been treated or were from the outset untreatable (inoperable tumors). All the patients were treated with an average of 300 mg of edelfosine/day (range of variation between 50 and 600 mg). […] The carrier medium/active ingredient mixture is drunk in different dose levels/portion, which differed from patient to patient, distributed over the day. Administration is accordingly oral; the treatment is entirely on an outpatient basis, unless the clinical picture makes admission to hospital unavoidable.
The number and duration of previous treatments before the start of therapy with a medicine are crucial for assessing the therapeutic efficacy=survival time and quality of survival; the survival time is in such cases always measured from the time at which the therapy with a medicine is started. The time which has elapsed from diagnosis until the start of treatment initially plays no direct part in this. However, it must be taken into account when the survival time of a last resort therapy (as edelfosine in this case) is compared with that of therapies which are usually started immediately after diagnosis (this is the case for chemotherapy and radiation studies).
For virtually all the patients, a tumor which continued to grow after all the therapies used led to the edelfosine therapy, i.e. the tumor was progressive (cf. Table 1, column “Tumor activity”). The specification of “clinical” progression means in this connection that the tumor was progressive on the basis of deteriorating clinical symptoms (for example increase in headaches, congestion in the head, dizziness, tendency to fall, neurological symptoms in general), but no objective study (for example CT) was available for comparison.
The pharmacodynamic effect, i.e. the effect of a medicine directly on the tumor, is normally measured 2 months after starting a therapy. This pharmacodynamic effect is defined differently depending on which class the substance belongs to (that is to say cytostatic, hormone product, immunomodulator etc.). […] The aim of therapy is accordingly a cessation of tumor growth (no change).
The survival time is measured from the start of therapy with a medicine. The state of the art survival time data reported in the literature for the treatment of brain tumors are usually based on either adjuvant treatment of patients, that is to say directly after surgical removal of a tumor, or else on treatment immediately after making the diagnosis.

[1] = adverse drug reactions (ADR) investigated during phase II studies; format: in vivo, humans
Source text: During phase II studies, in accordance with requirements the adverse drug reactions (ADR) were also investigated. The result is shown in Table 2: The grading of the symptoms as transferred to the case report forms took place in accordance with the internationally used WHO classification. The assessment “yes” means that a symptom is caused by the medicine.

healthy cells = conditions: healthy vs degenerate cells; cited from earlier work
human leukemic cells = conditions: cited from earlier work
[2] = patients with Karnofsky index <70% (N=16)
[3] = ADR caused by edelfosine, number of 150 courses
[4] = ADR caused by edelfosine, number of 159 courses
[5] = ADR not caused by edelfosine, number of 149 courses
[6] = ADR not caused by edelfosine, number of 150 courses
[7] = ADR not caused by edelfosine, number of 159 courses
[8] = ADR possibly caused by edelfosine, number of 150 courses
[9] = ADR possibly caused by edelfosine, number of 159 courses
[10] = no symptom reported, number of 149 courses
[11] = no symptom reported, number of 150 courses

CCCCCCCCCCCCCCCCCCOC[C@H](COP(=O)([O-])OCC[N+](C)(C)C)OC (racemic) [edelfosine, 1-octadecyl-2-methyl-sn-glycero-3-phosphocholine]
Result of therapy (brain tumors; Anaplastic oligodendroglioma): No further progression
Result of therapy (brain tumors; Astrocytoma II): No further progression
Result of therapy (brain tumors; Astrocytoma II/III): No further progression
Survival time (brain tumors; Astrocytoma II/III): 412 days
Result of therapy (clin.) (brain tumors; Astrocytoma II): No further progression
Result of therapy (brain tumors; Ependymoblastoma): Progression
Survival time (brain tumors; Ependymoblastoma): 196 days
Result of therapy (brain tumors; Glioblastoma (Ø histol.)): Progression
Result of therapy (clin.) (brain tumors; Glioblastoma (Ø histol.)): No further progression
Result of therapy (brain tumors; Glioblastoma IV): Progression
Survival time (brain tumors; Glioblastoma IV): 143 days and 266 days
Result of therapy (brain tumors; Glioblastoma IV + Gliosarcoma): No further progression
Survival time (brain tumors; Glioblastoma IV + Gliosarcoma): 203 days
Result of therapy (clin.) (brain tumors; Glioblastoma IV): No further progression
Result of therapy (clin.) (brain tumors; Glioblastoma multiforme): No further progression
survival of Pat. No. 247 (brain tumors; Glioblastoma, many years after completion of therapy): survived until the 8th year
Result of therapy (brain tumors; Gliosarcoma): No further progression
Survival time (brain tumors; Gliosarcoma): 110 days
Survival time (brain tumors; Oligoastrocytoma II): 270 days
Result of therapy (clin.) (brain tumors; Oligoastrocytoma II): No further progression
Result of therapy (brain tumors; Oligoastrocytoma IV): No further progression
Survival time (brain tumors; Oligoastrocytoma IV): 1602 days
Result of therapy (brain tumors; Oligodendroglioma III): No further progression
Survival time (brain tumors; Oligodendroglioma III): 573 days
Result of therapy (brain tumors; Oligodendroglioma III/IV): No further progression
Survival time (brain tumors; Oligodendroglioma III/IV): 2141 days
Result of therapy (brain tumors; Oligodendroglioma IV): No further progression
Survival time (brain tumors; Oligodendroglioma IV): 572 days
patients with clinical stabilization/improvement although tumor progressive according to imaging (brain tumors; after 2 months): 2%
treated patients with tumor still progressive (brain tumors; after 2 months): about 24%
treated patients with stabilization on the basis of clinical symptoms (cNC=clinical no change) (brain tumors; after 2 months of therapy, no objective study): approx. 14%
treated patients with cessation of tumor growth (NC=no change) (brain tumors; imaging study after 2 months of therapy): about 56%
maximum gain in survival time (brain tumors; patients with Karnofsky index <70%): > 20 months
average survival time (brain tumors; [2]): about 260 days
range of variation of survival time (brain tumors; [2]): 90 to 619 days
Appetite, Grade 1 yes [1, 3]: 4
Appetite, Grade 2 yes [1, 3]: 1
Appetite, Grade 3 yes [1, 3]: 2
Constipation, Grade 1 yes [1, 3]: 3
Diarrhea, Grade 1 yes [1, 3]: 5
Diarrhea, Grade 2 yes [1, 3]: 1
Nausea/vomiting, Grade 1 yes [1, 4]: 12
Nausea/vomiting, Grade 2 yes [1, 4]: 2
CNS toxicity, Grade 1 no ([1]; ADR not caused by edelfosine, number of 135 courses): 1
Skin changes, Grade 4 no ([1]; ADR not caused by edelfosine, number of 148 courses): 3
Alopecia, Grade 1 no [1, 5]: 3
Alopecia, Grade 2 no [1, 5]: 1
Alopecia, Grade 3 no [1, 5]: 3
Alopecia, Grade 4 no [1, 5]: 16
Pain, Grade 1 no [1, 5]: 7
Pain, Grade 2 no [1, 5]: 5
Pain, Grade 3 no [1, 5]: 3
Periph. neurop., Grade 1 no [1, 5]: 18
Appetite, Grade 1 no [1, 6]: 4
Appetite, Grade 2 no [1, 6]: 1
Appetite, Grade 3 no [1, 6]: 4
Appetite, Grade 4 no [1, 6]: 1
Arrhythmia, Grade 1 no [1, 6]: 5
Constipation, Grade 1 no [1, 6]: 1
Diarrhea, Grade 2 no [1, 6]: 1
Dyspnea, Grade 1 no [1, 6]: 4
Dyspnea, Grade 2 no [1, 6]: 3
Dyspnea, Grade 3 no [1, 6]: 1
Dyspnea, Grade 4 no [1, 6]: 1
Fever, Grade 1 no [1, 6]: 1
Fever, Grade 2 no [1, 6]: 7
Hemorrhages, Grade 1 no [1, 6]: 2
Infection, Grade 1 no [1, 6]: 3
Infection, Grade 2 no [1, 6]: 1
Nausea/vomiting, Grade 1 no [1, 7]: 1
Nausea/vomiting, Grade 2 no [1, 7]: 8
Nausea/vomiting, Grade 3 no [1, 7]: 2
CNS toxicity, Grade 1 ? ([1]; ADR possibly caused by edelfosine, number of 135 courses): 1
Alopecia, Grade 1 ? ([1]; ADR possibly caused by edelfosine, number of 149 courses): 1
Appetite, Grade 1 ? [1, 8]: 5
Appetite, Grade 2 ? [1, 8]: 2
Appetite, Grade 3 ? [1, 8]: 2
Constipation, Grade 1 ? [1, 8]: 3
Diarrhea, Grade 1 ? [1, 8]: 1
Nausea/vomiting, Grade 1 ? [1, 9]: 5
Nausea/vomiting, Grade 2 ? [1, 9]: 6
cumulative toxicity ([1]; after several years of uninterrupted therapy): no cumulative toxicity
reversibility of observed ADR symptoms ([1]; edelfosine therapy): reversible within a very short time (hours)
CNS toxicity, Grade 0 ([1]; no symptom reported, number of 135 courses): 133
Skin changes, Grade 0 ([1]; no symptom reported, number of 148 courses): 145
Alopecia, Grade 0 [1, 10]: 125
Hematuria, Grade 0 [1, 10]: 149
Pain, Grade 0 [1, 10]: 133
Periph. neurop., Grade 0 [1, 10]: 131
Stomatitis, Grade 0 [1, 10]: 149
Appetite, Grade 0 [1, 11]: 123
Arrhythmia, Grade 0 [1, 11]: 145
Constipation, Grade 0 [1, 11]: 143
Diarrhea, Grade 0 [1, 11]: 142
Dyspnea, Grade 0 [1, 11]: 141
Fever, Grade 0 [1, 11]: 142
Heart failure, Grade 0 [1, 11]: 150
Hemorrhages, Grade 0 [1, 11]: 148
Infection, Grade 0 [1, 11]: 146
Allergy, Grade 0 ([1]; no symptom reported, number of 151 courses): 151
Nausea/vomiting, Grade 0 ([1]; no symptom reported, number of 159 courses): 121
esophagoscopy, gastroscopy findings ([1]; patients with nausea/vomiting (gastric pressure) during edelfosine therapy): no pathological findings at all
adverse drug reactions of Pat. No. 542 ([1]; therapy of about 6 years, total dose of about 640 g): negligible adverse drug reactions; also recorded: no ADRs at all
fate in healthy cells after uptake (healthy cells): degraded in healthy cells
apoptosis (human leukemic cells): reinduction of apoptosis
